Positions count from the first letter of the chain named. Numbers in names are those of the source. Entries after “also recorded” stand apart in the source; their conditions may differ.
Columns and labels:
'mutant atbg1' [1] = experiment: Stomatal size of 'mutant atbg1' at night after ABA treatment; assay type: in vivo, Arabidopsis thaliana; conditions: 10 μM and 50 μM ABA at 23 o'clock, measured at 24 o'clock, n=200
Protocol: (§1) Particularly, the transgenic plant was cultured at 20° C. with 70% relative humidity under 16/8 hour-light/dark cycle and the stomatal sizes were measured at noon and midnight (n=150) (FIG. 13).
(§2) To investigate the effect of exogenous ABA on stomatal closure, the ‘mutant atbg1’ plant was treated with 10 μM and 50 μM of ABA at 23 o'clock and stomatal sizes were measured at 24 o'clock (FIG. 14). Control group was treated with 100 μM of NAME (L-nitroargininemethylester), known as […], during the time of stomatal disclosure, that is for 10 hours from 4 o'clock, and stomatal sizes were measured at midnight.

'mutant atbg1' [2] = experiment: Leaf colour of 'mutant atbg1' after exogenous ABA; assay type: in vivo, Arabidopsis thaliana; conditions: exogenous ABA applied to one week cultivated 'mutant atbg1', 3 more days of culture
From the text: Exogenous ABA was applied to one week cultivated ‘mutant atbg1’, followed by culture for 3 more days.

AtBG1:HA = experiment: AtBG1 glycosylation in protoplasts, blotting with anti-HA antibody; assay type: cell-based, Arabidopsis thaliana; conditions: anti-HA blot
From the text: To confirm the above result that AtBG1 localizes to ER, the present inventors examined AtBG1 glycosylation. Glycosylation of protein produces glycan and this glycan moiety of the protein localizing to the ER is sensitive to both endo-H and PNGase F, meaning the glycan moiety is easily digested by endo-H and PNGase F enzyme activities (Kuznetsov G. et al., J. Biol. Chem. 268: 2001, 1993). Tunicamycin is an inhibitor of the glycosylation.
Protein extract obtained from protoplasts of AtBG1:HA transfected plant and treated with endo-H and PNGase F (not treated with tunicamycin), protein extract obtained from protoplasts of tunicamycin treated Arabidopsis thaliana transformed with AtBG1 and protein extract obtained from protoplasts of tunicamycin-non-treated Arabidopsis thaliana transformed with AtBG1 were examined by blotting using anti-HA antibody.

wild type = experiment: Stomatal size of wild type at midnight after NAME treatment; assay type: in vivo, Arabidopsis thaliana; conditions: 100 μM NAME for 10 hours from 4 o'clock, measured at midnight
Protocol: as §1, §2

[3] = ABA-GE hydrolysis by immunopurified AtBG1 proteins, ABA fraction by HPLC and ELISA; assay type: biochemical, Arabidopsis thaliana; conditions: 100 mM citrate buffer pH 5.5, 37° C., one and half hours

Molecule: CC1=CC(=O)CC(C)(C)[C@@]1(O)/C=C/C(C)=C\C(=O)O [ABA, abscisic acid]
- stomatal closure in the night ('mutant atbg1' [1]): induced stomatal closure in the night
- leaf colour phenotype ('mutant atbg1' [2]): yellow leaf turned into normal green

Molecule: Tunicamycin
- size of AtBG1:HA versus tunicamycin-non-treated protoplasts (AtBG1:HA): smaller

Molecule: COC(=O)[C@@H](N)CCCNC(=N)N[N+](=O)[O-] [NAME, L-nitroargininemethylester]
- stomatal closure (wild type): defects in stomatal closure

B1: AtBG1:HA: HA (hemagglutinin) tagged wild type AtBG1, Arabidopsis thaliana β-glucosidase 1 (protein)
chain: QGPVCGAGLPDKFSRLNFPEGFIWGTATAAFQVEGAVNEGCRGPSMWDTFTKKFPHRCENHNADVAVDFYHRYKEDIQLMKDLNTDAFRLSIAWPRIFPHGRMSKGISKVGVQFYHDLIDELLKNNIIPLVTVFHWDTPQDLEDEYGGFLSGRIVQDFTEYANFTFHEYGHKVKHWITFNEPWVFSRAGYDNGKKAPGRCSPYIPGYGQHCQDGRSGYEAYQVSHNLLLSHAYAVDAFRNCKQCAGGKIGIAHSPAWFEPQDLEHVGGSIERVLDFILGWHLAPTTYGDYPQSMKDRVGHRLPKFTEAEKKLLKGSTDYVGMNYYTSVFAKEISPDPKSPSWTTDSLVDWDSKSVDGYKIGSKPFNGKLDVYSKGLRYLLKYIKDNYGDPEVIIAENGYGEDLGEKHNDVNFGTQDHNRKYYIQRHLLSMHDAICKDKVNVTGYFVWSLMDNFEWQDGYKARFGLYYIDFQNNLTRHQKVSGKWYSEFLKPQFPTSKLREEL
modifications: left off: small tags and cut ends
- ABA generated from ABA-GE (HPLC peak / ELISA detection) [3]: novel peaks at the position for ABA; also recorded: hydrolyzes ABA-GE to form ABA
- ABA generated from ABA-GE (HPLC peak / ELISA detection) ([3]; listed as wild type AtBG1 protein): high level of ABA

B2: AtBG1[E207Q]:HA: HA tagged AtBG1 with substitution mutation at position 207, an active site of β-glycosidase (protein, UniProt Q9SE50 27-528, looked up, variant E207Q)
Beta-D-glucopyranosyl …: B1 chain with E181Q
modifications: HA tag
- ABA generated from ABA-GE (HPLC peak / ELISA detection) [3]: novel peaks at the position for ABA
- amount of ABA released from ABA-GE, relative to that of the wild type ([3]; ABA peaks quantified by ELISA with anti-ABA antibody): 20%

Source: US7795498B2, “Use of AtBG1 gene for the generation of transgenic plants with increased resistance to various abiotic stress” (Postech Foundation, priority 2004, dated 2010)
